In patent US4764602A, “Antibiotics, and their production” (Sumitomo Chemical Company, priority 1986, dated 1988):
Values after ≈ are worked out from the molar mass of the structure shown.

Legend:
[1] = system: Aspergillus fumigatus MTU 16001; assay: MIC by agar dilution method; format: cell-based; details: MTU16001, Sabouraud's agar medium
Source text: (§1) The minimum inhibitory concentrations (MIC) of PC-766B against various microorgnisms as measured by the agar dilution method are shown in Table 4.
(§2) Note: *^1 1: Modified MullerHinton agar medium; 2: Sabouraud's agar

Bacillus cereus IAM 1029 = assay: MIC by agar dilution method; format: cell-based; details: IAM1029, Modified MullerHinton agar medium
Source text: as §1, §2

[2] = system: Bacillus subtilis ATCC 6633; assay: MIC by agar dilution method; format: cell-based; details: ATCC6633, Modified MullerHinton agar medium
Source text: as §1, §2

[3] = system: Candida albicans MTU 12001; assay: MIC by agar dilution method; format: cell-based; details: MTU12001, Sabouraud's agar medium
Source text: as §1, §2

[4] = system: Cryptococcus neoformans MTU 13001; assay: MIC by agar dilution method; format: cell-based; details: MTU13001, Sabouraud's agar medium
Source text: as §1, §2

[5] = system: Escherichia coli NIJH JC-2; assay: MIC by agar dilution method; format: cell-based; details: NIJHJC2, Modified MullerHinton agar medium
Source text: as §1, §2

[6] = system: Klebsiella pneumoniae ATCC 10031; assay: MIC by agar dilution method; format: cell-based; details: ATCC10031, Modified MullerHinton agar medium
Source text: as §1, §2

[7] = system: Micrococcus luteus ATCC 9341; assay: MIC by agar dilution method; format: cell-based; details: ATCC9341, Modified MullerHinton agar medium
Source text: as §1, §2

[8] = system: Proteus mirabilis GN 2425; assay: MIC by agar dilution method; format: cell-based; details: GN2425, Modified MullerHinton agar medium
Source text: as §1, §2

Pseudomonas aeruginosa T = assay: MIC by agar dilution method; format: cell-based; details: Modified MullerHinton agar medium
Source text: as §1, §2

Serratia marcescens ×100 = assay: MIC by agar dilution method; format: cell-based; details: Modified MullerHinton agar medium
Source text: as §1, §2

[9] = system: Staphylococcus aureus 209P; assay: MIC by agar dilution method; format: cell-based; details: Modified MullerHinton agar medium
Source text: as §1, §2

[10] = system: Staphylococcus epidermidis IAM 1296; assay: MIC by agar dilution method; format: cell-based; details: IAM1296, Modified MullerHinton agar medium
Source text: as §1, §2

[11] = system: Streptococcus pyogenes Cook; assay: MIC by agar dilution method; format: cell-based; details: Modified MullerHinton agar medium
Source text: as §1, §2

[12] = system: Trichophyton mentagrophytes MTU 19001; assay: MIC by agar dilution method; format: cell-based; details: MTU19001, Sabouraud's agar medium
Source text: as §1, §2

Solubility = format: physicochemical

In the case of `CC=CC=CC1OC(O)(C(C)C(O)C(C)C2OC(=O)C(OC)=CC(C)=CC(C)C(O)C(C)CC(C)=CC=CC2OC)CC(OC2CC(O)C(O)C(C)O2)C1C` (centres unmarked) [PC-766B], the MIC [1] is reported as > 100 µg/mL, the MIC (Bacillus cereus IAM 1029) is reported as 3.13 µg/mL (≈ 4.03 µM) and the MIC [2] is reported as 6.25 µg/mL (≈ 8.04 µM). The MIC [3] was > 100 µg/mL, the MIC [4] was 12.5 µg/mL (≈ 16.1 µM) and the MIC [5] was > 200 µg/mL. For the same compound, the MIC [6] was > 200 µg/mL, the MIC [7] was 1.56 µg/mL (≈ 2.01 µM) and the MIC [8] was > 200 µg/mL. The MIC (Pseudomonas aeruginosa T) was > 200 µg/mL, the MIC (Serratia marcescens ×100) was > 200 µg/mL and the MIC [9] was 12.5 µg/mL (≈ 16.1 µM). For the same compound, the MIC [10] was 6.25 µg/mL (≈ 8.04 µM), the MIC [11] was 3.13 µg/mL (≈ 4.03 µM) and the MIC [12] was > 100 µg/mL. The Solubility (Solubility; methanol, chloroform and ethyl acetate) was “soluble in methanol, chloroform and ethyl acetate” and the Solubility (Solubility; n-hexane and water) was “insoluble in n-hexane and water”.
